How the values were obtained:
Target C = test: HiBiT protein abundance assay, Target C (K562 HiBiT knock-in cells); assay type: cell-based, human; conditions: 24 hours
Method in brief: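 Protein abundance read by HiBiT lytic luminescence after 24 h compound exposure (37 °C) of knock-in K562 cells, 10000 cells/well in IMDM+1% FBS. Dosing: 10 points, 3-fold, top 10 μM final, ≤0.25% DMSO. Four-parameter logistic fit gave concentration reducing abundance to 50% of untreated control.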

HTT mRNA = test: Splicing RT-qPCR assay, HTT canonical (CJ) and alternative (AJ) junction mRNA; assay type: cell-based; conditions: Homo sapiens, A673 or K562 cells, 24 hours; for IC50: decrease in canonical junction mRNA; for AC50: increase in alternative junction mRNA
Method in brief: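 Canonical and alternative junction mRNAs measured by cell-lysate one-step RT-qPCR, normalized to PPIA in A673 or GAPDH/GUSB in K562. Cells received compound for 24 h at 37 °C, 5% CO2, 11-point 3-fold series from 10 uM final top dose, DMSO at most 0.25%.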

Row | SMILES | IC50 (Target C) [nM] | IC50 (HTT mRNA) [nM] | AC50 (HTT mRNA) [nM]
1 | CCNC1CCN(c2ccc(C(=O)Nc3cc(F)c4nc(C)cn4c3)c3nc(C)ccc23)CC1 [Compound 228, 5-[4-(ethylamino)piperidin-1-yl]-N-{8-fluoro-2-methylimidazo[1,2-a]pyridin-6-yl}-2-methylquinoline-8-carboxamide] | 100 to 1000 | 100 to 1000 | 100 to 1000
2 | Cc1cn2cc(NC(=O)c3ccc(N4CCC(NC(C)(C)C)C4)c4ccnnc34)cc(F)c2n1 (stereo not shown) [Compound 109] | 1000 to 10000 | 1000 to 10000 | 1000 to 10000
3 | Cc1cn2cc(NCc3ccc(N4CCNCC4)c4ccnnc34)cc(F)c2n1 [Compound 230, 8-fluoro-2-methyl-N-{[5-(piperazin-1-yl)cinnolin-8-yl]methyl}imidazo[1,2-a]pyridin-6-amine] | > 10000 | 1000 to 10000 | > 10000
4 | COCCOc1ccc2c(N3CCC(N(C)C)CC3)ccc(C(=O)Nc3cc(F)c4nc(C)cn4c3)c2n1 [Compound 229, 5-[4-(dimethylamino)piperidin-1-yl]-N-{8-fluoro-2-methylimidazo[1,2-a]pyridin-6-yl}-2-(2-methoxyethoxy)quinoline-8-carboxamide] | > 10000 | > 10000 | > 10000
5 | CNC1CCN(c2ccc(C(=O)Nc3cc(F)c4nc(C)cn4c3)c3ncc(OC)nc23)C1 (stereo in doubt) [Compound 227, (R)—N-(8-fluoro-2-methylimidazo[1,2-a]pyridin-6-yl)-2-methoxy-8-(3-(methylamino)pyrrolidin-1-yl)quinoxaline-5-carboxamide 2,2,2-trifluoroacetate] | 100 to 1000 | > 10000 | > 10000
6 | Cc1cnc2c(C(=O)Nc3cc(F)c4nc(C)cn4c3)ccc(N3C[C@@H](C)N[C@@H](C)C3)c2n1 [Compound 217, 8-((3R,5S)-3,5-dimethylpiperazin-1-yl)-N-{8-fluoro-2-methylimidazo[1,2-a]pyridin-6-yl}-2-methylquinoxaline-5-carboxamide] | 100 to 1000 | – | –

Further lines, with some results ahead:

Row | IC50 (Target C) [nM] | IC50 (HTT mRNA) [nM] | SMILES | AC50 (HTT mRNA) [nM]
7 | 1000 to 10000 | 1000 to 10000 | CCNC1CCN(c2ccc(C(=O)Nc3cc(F)c4nc(C)cn4c3)c3nc(OCCOC)ccc23)CC1 [Compound 233, 5-[4-(ethylamino)piperidin-1-yl]-N-{8-fluoro-2-methylimidazo[1,2-a]pyridin-6-yl}-2-(2-methoxyethoxy)quinoline-8-carboxamide] | 1000 to 10000
8 | 1000 to 10000 | 1000 to 10000 | COCCOc1ccc2c(N3C[C@@H](C)N[C@@H](C)C3)ccc(C(=O)Nc3cc(F)c4nc(C)cn4c3)c2n1 [Compound 232, 5-[(3R,5S)-3,5-dimethylpiperazin-1-yl]-N-{8-fluoro-2-methylimidazo[1,2-a]pyridin-6-yl}-2-(2-methoxyethoxy)quinoline-8-carboxamide] | 1000 to 10000
9 | 1000 to 10000 | 1000 to 10000 | CNC1CCN(c2ccc(C(=O)Nc3cc(F)c4nc(C)cn4c3)c3nnccc23)C1 (stereo not shown) [Compound 231, N-{8-fluoro-2-methylimidazo[1,2-a]pyridin-6-yl}-5-[3-(methylamino)pyrrolidin-1-yl] cinnoline-8-carboxamide] | 1000 to 10000

Source: patent publication US20240409536A1, “COMPOUNDS AND METHODS FOR MODULATING SPLICING” (REMIX THERAPEUTICS INC., priority 2021, published 2024)
